B1: K: 495 amino-acid staphylococcal phage K endolysin LysK, C-terminal His6 tag; SEQ ID NO:3 (protein)
chain: MAKTQAEINKRLDAYAKGTVDSPYRVKKATSYDPSFGVMEAGAIDADGYYHAQCQDLITDYVLWLTDNKVRTWGNAKDQIKQSYGTGFKIHENKPSTVPKKGWIAVFTSGSYEQWGHIGIVYDGGNTSTFTILEQNWNGYANKKPTKRVDNYYGLTHFIEIPVKAGTTVKKETAKKSASKTPAPKKKATLKVSKNHINYTMDKRGKKPEGMVIHNDAGRSSGQQYENSLANAGYARYANGIAHYYGSEGYVWEAIDAKNQIAWHTGDGTGANSGNFRFAGIEVCQSMSASDAQFLKNEQAVFQFTAEKFKEWGLTPNRKTVRLHMEFVPTACPHRSMVLHTGFNPVTQGRPSQAIMNKLKDYFIKQIKNYMDKGTSSSTVVKDGKTSSASTPATRPVTGSWKKNQYGTWYKPENATFVNGNQPIVTRIGSPFLNAPVGGNLPAGATIVYDEVCIQAGHIWIGYNAYNGNRVYCPVRTCQGVPPNQIPGVAWGVFKLEHHHHHH
modifications: C-terminal His6 tag; Phage K

Experiments:
S. aureus Newman = assay: Minimum Inhibitory Concentration (MIC) assay; assay type: cell-based; conditions: for Minimum Inhibitory Conc. (median μg/ml): S. aureus Newman
Experimental: (§1) The Minimum Inhibitory Concentrations (MIC) of each protein for multiple S. aureus strains was determined as previously described (Jones et al. 1985. In: Manual of Clinical Microbiology, Eds. Balows et al. American Society of Microbiology, Washington D.C., pp. 972-977) with the following modifications. Enzymes were serially diluted two fold across a 96 well plate, such that after dilution, 50 μl of the enzyme solution in 300 mM NaCl, 50 mM NaH2PO4, 30% glycerol pH 7.5, remained in each well. To each well was added 50 μl of TSB and 100 μl of S. aureus Newman in TSB (diluted to 5×10^6 cells/ml). The plates were incubated 20 h at 37° C. and read with a 96 well plate reader. MIC determination values were reported as the median of ≧4 replicates (Table 1).

N315 (NRS 70) = assay: Minimum Inhibitory Concentration (MIC) assay; assay type: cell-based, S. aureus
Experimental: as §1

NRS 192 = assay: Minimum Inhibitory Concentration (MIC) assay; assay type: cell-based, S. aureus
Experimental: as §1

NRS 193 = assay: Minimum Inhibitory Concentration (MIC) assay; assay type: cell-based, S. aureus
Experimental: as §1

NRS 194 = assay: Minimum Inhibitory Concentration (MIC) assay; assay type: cell-based, S. aureus
Experimental: as §1

NRS 209 = assay: Minimum Inhibitory Concentration (MIC) assay; assay type: cell-based, S. aureus
Experimental: as §1

NRS 271 = assay: Minimum Inhibitory Concentration (MIC) assay; assay type: cell-based, S. aureus
Experimental: as §1

Sanger 252 (NRS 71) = assay: Minimum Inhibitory Concentration (MIC) assay; assay type: cell-based, S. aureus
Experimental: as §1

USA 100 (NRS 382) = assay: Minimum Inhibitory Concentration (MIC) assay; assay type: cell-based, S. aureus
Experimental: as §1

USA 200 (NRS 383) = assay: Minimum Inhibitory Concentration (MIC) assay; assay type: cell-based, S. aureus
Experimental: as §1

USA 300 (NRS 384) = assay: Minimum Inhibitory Concentration (MIC) assay; assay type: cell-based, S. aureus
Experimental: as §1

USA 400 (NRS 123) = assay: Minimum Inhibitory Concentration (MIC) assay; assay type: cell-based, S. aureus
Experimental: as §1

USA 500 (NRS 385) = assay: Minimum Inhibitory Concentration (MIC) assay; assay type: cell-based, S. aureus
Experimental: as §1

USA 600 (NRS 22) = assay: Minimum Inhibitory Concentration (MIC) assay; assay type: cell-based, S. aureus
Experimental: as §1

S. hyicus MP01 = assay: Minimum Inhibitory Concentration (MIC) assay; assay type: cell-based, Staphylococcus hyicus; conditions: Mastitis isolate S. hyicus MP01
S. warneri MP06 = assay: Minimum Inhibitory Concentration (MIC) assay; assay type: cell-based, Staphylococcus warneri; conditions: Mastitis isolate S. warneri MP06
S. aureus strain Newman = assay type: cell-based; conditions: tenth round compared to first exposure
Experimental: For the MIC repeated exposure method, MIC determinations were performed with S. aureus strain Newman. 100 μl of S. aureus strain Newman culture that survived at ½ the MIC (the first well with visible growth) for each round was inoculated into 5 ml TSB and cultivated to mid-log phase growth. This culture was used as the inoculum for the next round of MIC exposure (overnight growth), and the cycle was repeated for 10 rounds.
Development of resistance to the triple-acting fusion enzymes was tested on S. aureus strain Newman and compared to both parental enzymes applied individually or simultaneously. […] Survivors of the ten round exposure to peptidoglycan hydrolase were passaged five times in medium with no peptidoglycan hydrolase added. […] We compared our triple-acting fusions to small molecule antibiotics in similar assays.

S. aureus SA113 biofilms = assay: Static biofilm reduction model; assay type: cell-based; conditions: 1 h treatment, compared to buffer treated biofilms
Experimental: S. aureus SA113 biofilms were treated for 1 h with 100 μl of each enzyme individually or as equimolar mixtures of LysK and lysostaphin (white bars) in 300 mM NaCl, 50 mM NaH2PO4, 30% glycerol. Constructs are named as in FIG. 1a. Results are reported as the percentage reduction in biofilm compared to buffer treated biofilms. Data presented represents 4 replicates. Values represent means±[…]. Asterisks indicate significant differences (single factor ANOVA with t-test post hoc analysis Sidák correction) as compared to LysK (K) at that concentration. Adjusted alpha p<0.026. Peptidoglycan hydrolase constructs: lysostaphin (L), LysK (K), triple fusion K-L, and triple fusion (L-K), as named in FIG. 1a.
In the static biofilm reduction model, biofilms were produced as previously described (Gross et al. 2001. Infect. Immun. 69:3423-3426) with the following modifications. S. aureus strains were grown overnight in 5 ml TSB supplemented with 0.25% D(+)-glucose without shaking at 37° C. The culture was diluted 1/200 in fresh culture medium, and 200 μl was added to each well of a 96 well microtiter plate and incubated without shaking for 24 h at 37° C. Biofilms in the wells were washed twice with 200 μl SLB, treated with […] peptidoglycan hydrolase (Lysostaphin, LysK and the triple fusion proteins K-L and L-K) in SLB at concentrations indicated (FIG. 4) for 1 h at room temperature, and washed twice with 100 μl SLB. Adherent bacteria were fixed with 200 μl 95% ethanol-5% glacial acetic acid for 20 min, washed once with water, and stained with 100 μl 0.4% crystal violet for 15 min at room temperature. Excess stain was removed with 3 water washes. Bound stain was resolubilized in 33% acetic acid, and 20 μl was transferred to a 96 well plate containing 180 μl water. The OD590nm was determined in a Spectra Max plate reader. Percent reduction represents the difference in absorbance between biofilms exposed to buffer only and experimental wells that were exposed to the peptidoglycan hydrolases.
Static biofilms were created with S. aureus strain SA113 in 96 well dishes and treated for one hour with 100 μl of the indicated concentrations of each enzyme individually or as an equimolar mixture of LysK and lysostaphin.

[1] = first exposure of the resistance development experiment, FIG. 1b
[2] = first exposure, molar concentration in brackets

Molecule	Minimum Inhibitory Conc. (median μg/ml) (S. aureus Newman) [µg/mL]	First exposure MIC (S. aureus Newman; [1]) [µg/mL]	First exposure MIC (S. aureus Newman; [2]) [µM]	Minimum Inhibitory Conc. (median μg/ml) (N315 (NRS 70)) [µg/mL]	Minimum Inhibitory Conc. (median μg/ml) (NRS 192) [µg/mL]	Minimum Inhibitory Conc. (median μg/ml) (NRS 193) [µg/mL]	Minimum Inhibitory Conc. (median μg/ml) (NRS 194) [µg/mL]	Minimum Inhibitory Conc. (median μg/ml) (NRS 209) [µg/mL]	Minimum Inhibitory Conc. (median μg/ml) (NRS 271) [µg/mL]	Minimum Inhibitory Conc. (median μg/ml) (Sanger 252 (NRS 71)) [µg/mL]	Minimum Inhibitory Conc. (median μg/ml) (USA 100 (NRS 382)) [µg/mL]	Minimum Inhibitory Conc. (median μg/ml) (USA 200 (NRS 383)) [µg/mL]	Minimum Inhibitory Conc. (median μg/ml) (USA 300 (NRS 384)) [µg/mL]	Minimum Inhibitory Conc. (median μg/ml) (USA 400 (NRS 123)) [µg/mL]	Minimum Inhibitory Conc. (median μg/ml) (USA 500 (NRS 385)) [µg/mL]	Minimum Inhibitory Conc. (median μg/ml) (USA 600 (NRS 22)) [µg/mL]	Minimum Inhibitory Conc. (median μg/ml) (S. hyicus MP01) [µg/mL]	Minimum Inhibitory Conc. (median μg/ml) (S. warneri MP06) [µg/mL]	increase in MIC after 10 rounds of sub-lethal exposure (S. aureus strain Newman) [fold]	static biofilm reduction (in words) (S. aureus SA113 biofilms)
K-L: both LysK lytic domains fused to the N-terminus of lysostaphin; SEQ ID NO:5, protein SEQ ID NO:6	7.0	7	0.097	7.0	11	7.0	14	7.0	7.0	5.5	14	5.5	11	7.0	7.0	7.0	1.8	5.3	8	effectively reduced staphylococcal biofilms
L: 247 amino acid mature (secreted) lysostaphin, staphylolytic bacteriocin, C-terminal His6 tag; SEQ ID NO:1 [reference compound]	0.77	0.77	0.027	0.68	1.2	1.2	1.2	0.97	0.58	0.58	1.2	1.2	1.2	1.2	1.2	1.2	0.29	1.5	585	effectively reduced staphylococcal biofilms
B1	47	47	0.84	37	80	37	69	40	44	29	96	34	75	75	67	75	8.4	28	42	effectively reduced staphylococcal biofilms
